Starred links: 1 amine or outer side, 2 acyl side, 3 side chain; linkers in the order of their positions; H or OH if unused. Positions of bridges follow the written chain, without caps; N, C: chain ends. Residues, ends and D or L forms follow the SMILES beside them. Groups on a side chain read outwards from the residue. *: point of attachment. C20 diacid = O=C(O)CCCCCCCCCCCCCCCCCCC(=O)*; C18 diacid = O=C(O)CCCCCCCCCCCCCCCCC(=O)*; C16 diacid = O=C(O)CCCCCCCCCCCCCCC(=O)*; γGlu = O=C(O)[C@H](CCC(=O)[*:2])N[*:1]; AEEA = NCCOCCOCC(=O)O
Test system: classical complement pathway
Assay: In vitro haemolysis assay (inhibition of classical complement pathway)
Type: cell-based, human
Details: human serum, sensitized sheep red blood cells; Table 3, given as upper bounds; read-out: IC50, inhibition of hemolysis
In short: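 Compound dilutions preincubated 15 min at room temperature with diluted human serum (titrated per batch for 70-90% maximal haemolysis), then antibody-sensitized sheep RBC (10^7/well) added for 30 min at 37 °C in Tris/casein buffer, pH 7.4. Stopped with EDTA; haemolysis read at 405 nm; IC50 by 4PL fit.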

In the case of `CC[C@H](C)[C@H](NC(C)=O)C(=O)N[C@H]1CSSC[C@@H](C(=O)N[C@H](C(=O)N[C@@H](CCC(=O)O)C(=O)NCC(=O)N[C@@H](CCCCNC(=O)COCCOCCNC(=O)COCCOCCNC(=O)CC[C@H](NC(=O)CCCCCCCCCCCCCCC(=O)O)C(=O)O)C(N)=O)[C@@H](C)O)NC(=O)[C@H](CCCNC(=N)N)NC(=O)[C@H](Cc2c[nH]cn2)NC(=O)[C@H](CCC(=O)O)NC(=O)CNC(=O)[C@H](Cc2c[nH]c3ccccc23)NC(=O)[C@H](CC(=O)O)NC(=O)[C@H](CCC(N)=O)NC(=O)[C@H](Cc2c[nH]c3ccccc23)NC(=O)[C@H]([C@@H](C)CC)NC1=O` [Compound 93] (Ac-ICIWQDWGEHRCTEGK([AEEA-AEEA-γGlu-C16 diacid])-NH2; disulfide 2-12), the IC50 is reported as less than 500 nM.
Work on `CC[C@H](C)[C@H](NC(C)=O)C(=O)N[C@H]1CSSC[C@@H](C(=O)N[C@H](C(=O)N[C@@H](CCC(=O)O)C(=O)NCC(=O)N[C@@H](CCC(=O)O)C(=O)N[C@@H](CCCCNC(=O)COCCOCCNC(=O)COCCOCCNC(=O)CC[C@H](NC(=O)CCCCCCCCCCCCCCC(=O)O)C(=O)O)C(N)=O)[C@@H](C)O)NC(=O)[C@H](CCCNC(=N)N)NC(=O)[C@H](Cc2c[nH]cn2)NC(=O)[C@H](CCC(=O)O)NC(=O)CNC(=O)[C@H](Cc2c[nH]c3ccccc23)NC(=O)[C@H](CC(=O)O)NC(=O)[C@H](CCC(N)=O)NC(=O)[C@H](Cc2c[nH]c3ccccc23)NC(=O)[C@H]([C@@H](C)CC)NC1=O` [Compound 94] (Ac-ICIWQDWGEHRCTEGEK([AEEA-AEEA-γGlu-C16 diacid])-NH2; disulfide 2-12) yielded an IC50 of less than 500 nM.
In the case of `CC[C@H](C)[C@H](NC(C)=O)C(=O)N[C@H]1CSSC[C@@H](C(=O)N[C@H](C(=O)N[C@@H](CCC(=O)O)C(=O)NCC(=O)N[C@@H](CCCCNC(=O)COCCOCCNC(=O)COCCOCCNC(=O)CC[C@H](NC(=O)CCCCCCCCCCCCCCCCC(=O)O)C(=O)O)C(N)=O)[C@@H](C)O)NC(=O)[C@H](CCCNC(=N)N)NC(=O)[C@H](Cc2c[nH]cn2)NC(=O)[C@H](CCC(=O)O)NC(=O)CNC(=O)[C@H](Cc2c[nH]c3ccccc23)NC(=O)[C@H](CC(=O)O)NC(=O)[C@H](CCC(N)=O)NC(=O)[C@H](Cc2c[nH]c3ccccc23)NC(=O)[C@H]([C@@H](C)CC)NC1=O` [Compound 96] (Ac-ICIWQDWGEHRCTEGK([AEEA-AEEA-γGlu-C18 diacid])-NH2; disulfide 2-12), the IC50 is reported as less than 1000 nM.
In the case of `CC[C@H](C)[C@H](NC(C)=O)C(=O)N[C@H]1CSSC[C@@H](C(=O)N[C@H](C(=O)N[C@@H](CCC(=O)O)C(=O)NCC(=O)N[C@@H](CCC(=O)O)C(=O)N[C@@H](CCCCNC(=O)COCCOCCNC(=O)COCCOCCNC(=O)CC[C@H](NC(=O)CCCCCCCCCCCCCCCCC(=O)O)C(=O)O)C(N)=O)[C@@H](C)O)NC(=O)[C@H](CCCNC(=N)N)NC(=O)[C@H](Cc2c[nH]cn2)NC(=O)[C@H](CCC(=O)O)NC(=O)CNC(=O)[C@H](Cc2c[nH]c3ccccc23)NC(=O)[C@H](CC(=O)O)NC(=O)[C@H](CCC(N)=O)NC(=O)[C@H](Cc2c[nH]c3ccccc23)NC(=O)[C@H]([C@@H](C)CC)NC1=O` [Compound 97] (Ac-ICIWQDWGEHRCTEGEK([AEEA-AEEA-γGlu-C18 diacid])-NH2; disulfide 2-12), the IC50 is reported as less than 250 nM.
`CC[C@H](C)[C@H](NC(C)=O)C(=O)N[C@H]1CSSC[C@@H](C(=O)N[C@H](C(=O)N[C@@H](CCC(=O)O)C(=O)NCC(=O)N[C@@H](CCCCNC(=O)COCCOCCNC(=O)COCCOCCNC(=O)CC[C@H](NC(=O)CCCCCCCCCCCCCCCCCCC(=O)O)C(=O)O)C(N)=O)[C@@H](C)O)NC(=O)[C@H](CCCNC(=N)N)NC(=O)[C@H](Cc2c[nH]cn2)NC(=O)[C@H](CCC(=O)O)NC(=O)CNC(=O)[C@H](Cc2c[nH]c3ccccc23)NC(=O)[C@H](CC(=O)O)NC(=O)[C@H](CCC(N)=O)NC(=O)[C@H](Cc2c[nH]c3ccccc23)NC(=O)[C@H]([C@@H](C)CC)NC1=O` [Compound 98] (Ac-ICIWQDWGEHRCTEGK([AEEA-AEEA-γGlu-C20 diacid])-NH2; disulfide 2-12) gave an IC50 of less than 500 nM.
